Measured values: paper PMC9226124, “Macrocycle-stabilization of its interaction with 14-3-3 increases plasma membrane localization and activity of CFTR” (Nature Communications, 2022)
Several values for one entry are separate records, joined by “and”; a condition that tells them apart may be missing. Identical values can stand only once.

What was measured:
14-3-3β/Foxo3 peptide = target: T1, 14-3-3β/Foxo3 peptide (Homo sapiens, UniProt P31946); assay: FP assay of 14-3-3 partner protein peptide, Foxo3; assay type: binding; details: CY007424 100 μM
T1 construct: His6 (cleaved yes); made in house
T1 sequence (P31946 1-246): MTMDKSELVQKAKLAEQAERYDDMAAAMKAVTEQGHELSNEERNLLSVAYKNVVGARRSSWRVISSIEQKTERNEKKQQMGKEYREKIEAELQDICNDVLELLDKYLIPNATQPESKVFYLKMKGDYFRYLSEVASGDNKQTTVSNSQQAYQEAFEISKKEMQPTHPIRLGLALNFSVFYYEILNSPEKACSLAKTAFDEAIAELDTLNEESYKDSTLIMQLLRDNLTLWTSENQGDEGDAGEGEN
Protocol: (§1) The FITC-labeled peptides were dissolved in FP buffer (10 mM HEPES pH 7.4, 150 mM NaCl, 0.1% Tween20, 1 mg/mL BSA) to a final concentration of 100 nM or 10 nM. For the dose-response assays, a 14-3-3β concentration of 10 μM was used while titrating the compounds in a two-times dilution series and, for the other assays, a dilution series of 14-3-3β was made with constant concentration of compound. The dilution series were made in 384 Corning Black Round Bottom well plates and their polarization was measured with a Tecan Infinite F500 plate reader (ex. = 485 nm, em. = 535 nm). The method of fitting of the curves was: “log(agonist) vs. response – Variable slope (four parameters)” from GraphPad Prism. The equation is Y = Bottom + (Top-Bottom)/(1 + 10^((LogEC50-X)*HillSlope)).
(§2) Supplementary Figure 2. Stabilization of the interaction between 14-3-3β and a collection of different 14-3-3 partner protein peptides by CY00742 4. […] Background polarization was subtracted from all values, n=3 technical replicates. Source data are provided as a Source Data file.
(§3) (1 picture or pasted object on this page, not shown here)

14-3-3β/p53 peptide = target: T2, 14-3-3β/p53 peptide (Homo sapiens, UniProt P31946); assay: FP assay of 14-3-3 partner protein peptide, p53; assay type: binding; details: CY007424 100 μM
T2 construct: His6 (cleaved yes); made in house
T2 sequence (P31946 1-246): T1 sequence (P31946 1-246)
Protocol: as §1, §2, §3

N=C(N)NCCCC1NCc2ccccc2Sc2ccccc2CNC(=O)C(Cc2ccc(O)cc2)NC(=O)C(CCCN)NC1=O (stereo not shown) [CY007424]
FP signal (14-3-3β/Foxo3 peptide; 14-3-3β 3.8147e-9 M): 0.3333 | FP signal (14-3-3β/Foxo3 peptide; 14-3-3β 3.05176e-8 M): 4.333 and 3.333 | FP signal (14-3-3β/Foxo3 peptide; 14-3-3β 6.10352e-8 M): 7.333 and 6.333 | FP signal (14-3-3β/Foxo3 peptide; 14-3-3β 1.2207e-7 M): 14.3333 and 19.3333 and 15.3333 | FP signal (14-3-3β/Foxo3 peptide; 14-3-3β 2.44141e-7 M): 27.3333 and 29.3333 and 28.3333 | FP signal (14-3-3β/Foxo3 peptide; 14-3-3β 4.88281e-7 M): 45.3333 and 46.3333 and 43.3333 | FP signal (14-3-3β/Foxo3 peptide; 14-3-3β 9.76563e-7 M): 62.3333 and 55.3333 | FP signal (14-3-3β/Foxo3 peptide; 14-3-3β 1.95313e-6 M): 71.3333 and 70.3333 | FP signal (14-3-3β/Foxo3 peptide; 14-3-3β 3.90625e-6 M): 88.3333 and 86.3333 and 85.3333 | FP signal (14-3-3β/Foxo3 peptide; 14-3-3β 7.8125e-6 M): 104.333 and 105.333 and 107.333 | FP signal (14-3-3β/Foxo3 peptide; 14-3-3β 1.5625e-5 M): 129.333 and 126.333 and 125.333 | FP signal (14-3-3β/Foxo3 peptide; 14-3-3β 3.125e-5 M): 145.333 and 149.333 and 146.333 | FP signal (14-3-3β/Foxo3 peptide; 14-3-3β 6.25e-5 M): 167.333 and 166.333 | FP signal (14-3-3β/Foxo3 peptide; 14-3-3β 0.000125 M): 181.333 and 182.333 and 185.333 | FP signal (14-3-3β/Foxo3 peptide; 14-3-3β 0.00025 M): 195.333 and 193.333 and 196.333 | FP signal (14-3-3β/p53 peptide; 14-3-3β 59.6 pM): 4 and 3 | FP signal (14-3-3β/p53 peptide; 14-3-3β 119.2 pM): 4 and 3 | FP signal (14-3-3β/p53 peptide; 14-3-3β 3.8147e-9 M): 4 and 7 | FP signal (14-3-3β/p53 peptide; 14-3-3β 7.62939e-9 M): 7 and 6 and 4 | FP signal (14-3-3β/p53 peptide; 14-3-3β 1.52588e-8 M): 5 and 3 and 4 | FP signal (14-3-3β/p53 peptide; 14-3-3β 3.05176e-8 M): 3 and 5 and 4 | FP signal (14-3-3β/p53 peptide; 14-3-3β 6.10352e-8 M): 10 and 9 | FP signal (14-3-3β/p53 peptide; 14-3-3β 1.2207e-7 M): 13 and 15 | FP signal (14-3-3β/p53 peptide; 14-3-3β 2.44141e-7 M): 15 and 18 | FP signal (14-3-3β/p53 peptide; 14-3-3β 4.88281e-7 M): 20 and 24 and 21 | FP signal (14-3-3β/p53 peptide; 14-3-3β 9.76563e-7 M): 21 and 25 and 23 | FP signal (14-3-3β/p53 peptide; 14-3-3β 1.95313e-6 M): 20 and 22 and 21 | FP signal (14-3-3β/p53 peptide; 14-3-3β 3.90625e-6 M): 21 and 20 | FP signal (14-3-3β/p53 peptide; 14-3-3β 7.8125e-6 M): 24 and 20 and 21 | FP signal (14-3-3β/p53 peptide; 14-3-3β 1.5625e-5 M): 17 and 22 and 25 | FP signal (14-3-3β/p53 peptide; 14-3-3β 3.125e-5 M): 26 and 24 and 29 | FP signal (14-3-3β/p53 peptide; 14-3-3β 6.25e-5 M): 31 and 32 and 34 | FP signal (14-3-3β/p53 peptide; 14-3-3β 0.000125 M): 44 and 45 and 48 | FP signal (14-3-3β/p53 peptide; 14-3-3β 0.00025 M): 66 and 67 and 63
